Source: PMC12264943, “Identification of New Human P2X7 Antagonists Using Ligand- and Structure-Based Virtual Screening” (Journal of Chemical Information and Modeling, 2025)
Entries after “also recorded” stand apart in the source; their conditions may differ.

Tests used:
Type in all cases: cell-based
hP2X7 [1] = target: T1, hP2X7 (Homo sapiens, UniProt Q99572); test: YO-PRO 1 dye uptake assay, HEK-293 cells stably transfected with hP2X7; conditions: for hP2X7 inhibition in YO-PRO 1 dye uptake, SAR / reduction of hP2X7 activity: analogues at 10 μM; for hP2X7 inhibition in YO-PRO 1 dye uptake, SAR: 1 mM ATP; for reduction of hP2X7 activity: YO-PRO 1, 1 mM ATP, 0.1% DMSO; for IC50: Table 1, table names no assay, values of 2 and 9 are from YO-PRO 1 dye uptake in hP2X7 HEK-293 cells, read-out: IC50
T1 construct: expressed in transfected cells; host or cells: HEK-293, stably transfected (gift of E. Adinolfi's group, Ferrara University)
T1 sequence (Q99572 1-595): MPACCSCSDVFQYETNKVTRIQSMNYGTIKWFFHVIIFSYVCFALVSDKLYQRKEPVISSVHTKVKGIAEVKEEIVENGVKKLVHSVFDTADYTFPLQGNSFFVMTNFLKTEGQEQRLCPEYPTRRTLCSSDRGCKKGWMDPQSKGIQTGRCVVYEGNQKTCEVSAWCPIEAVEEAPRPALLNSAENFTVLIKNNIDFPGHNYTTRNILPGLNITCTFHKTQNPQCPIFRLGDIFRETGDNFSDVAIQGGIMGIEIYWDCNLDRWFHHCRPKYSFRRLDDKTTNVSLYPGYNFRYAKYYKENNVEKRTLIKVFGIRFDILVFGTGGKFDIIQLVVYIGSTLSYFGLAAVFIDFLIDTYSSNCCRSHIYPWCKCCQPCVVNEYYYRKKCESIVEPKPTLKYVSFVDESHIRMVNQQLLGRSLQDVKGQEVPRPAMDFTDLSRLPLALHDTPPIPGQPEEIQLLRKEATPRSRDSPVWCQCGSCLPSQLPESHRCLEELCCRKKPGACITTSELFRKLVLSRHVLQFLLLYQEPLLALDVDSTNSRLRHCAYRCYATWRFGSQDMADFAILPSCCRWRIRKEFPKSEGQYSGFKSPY
Description: (§1) Astrocytoma 1321 N1 (established by Dr. Gaia Pasqualetto) and HEK-293 (kindly gifted by E. Adinolfi’s group, Ferrara University) both stably transfected with hP2X7, were used to assess the activity of the small molecules selected from the VS. Cells were maintained in DMEM:F12 (PanBiotech) supplemented with 10% FBS, 1% pen-strep, and 150 μg/mL G418 (PanBiotech).
(§2) Astrocytoma 1321 N1 cells (2–2.5 × 10^4 cells/well) and HEK-293 cells (4–5 × 10^4 cells/well) expressing hP2X7 were seeded in poly-L-lysine-coated 96-well plates (Sarstedt) 24 h before the experiment. YO-PRO 1 dye was prepared at 5 μM in extracellular solution with low divalent cations (ECS-LD) buffer (147 mM NaCl, 10 mM HEPES, 13 mM glucose, 0.2 mM CaCl2, 2 mM KCl, pH 7.4) and added to cells after washing them with Dulbecco’s phosphate- buffered saline (DPBS) (PanBiotech) and incubated for 20 min at 37 °C. ATP-induced dye uptake, mediated by hP2X7 activation, was monitored using a Clariostar plate reader (excitation: 485 nm; emission: 538 nm) for 30 cycles (75–150 s/cycle), after recording the baseline for five cycles. hP2X7 activation was quantified at cycle 10 by calculating the fluorescence intensity (FI) ratio (Δ(Fcycle 10–F cycle 1)/cycle time).
Compounds 2 and 9, identified as hits, were further evaluated for concentration-dependent inhibition (IC50) of hP2X7 activation in the YO-PRO 1 dye uptake assay using HEK-293 cells stably transfected with hP2X7 (unfortunately, at this point in the study, the stably transfected 1321N1 cells lost P2X7 expression, and we were unable to recover them from frozen aliquots), for which the ATP EC50 was determined to be approximately 1 mM (Supporting material Figure 4C). Seven concentrations (100 to 0.03 μM) were tested, but due to precipitation at 100 μM, the DMSO concentration was increased to 1%.
3 Inhibitory concentration response evaluation of compounds 2 and 9 and their groups highlighted for SAR. […] Compound activity was evaluated along a time of 20 min (75 s per cycle) after ATP addition (700 μM). The fluorescence intensity (FI) values of the first 10 cycles were considered for assessing their ability to inhibit hP2X7. The curves represent three biological replicates (n = 4 per replicate). Data were normalized by setting as 100% the FI recorded by hP2X7 HEK-293 cells incubated in 1% DMSO and stimulated by ATP, and as 0% the FI recorded by the same cells but treated with ECS-LD (assay buffer). (C) Highlighted areas of compound 2 considered for SAR study. R1 refers to the ethyl-benzyl group of the molecules, and R2 and R3 refer to the benzo-(1,3)-dioxol groups. (D) Highlighted areas of compound 9 considered for SAR study. We have defined the area highlighted in yellow and numbered as 1 as the “front” region of the molecule and the one colored in pink and named as 2 as the “back” region of the molecule. L highlights the urea and amide linkers of compounds 2 and 9, respectively.
(§3) 4 Evaluation of compound 2 and 9 analogue activity using YO-PRO 1 and MPR assays. The activity of compound 2 (A and B) and 9 (C and D) analogues was evaluated in YO-PRO 1 (A and C) and MPR (B and D) assays. The compounds were tested at 10 μM and preincubated for either 20 (YO-PRO 1) or 30 min (MPR). The baseline was recorded for 5 cycles before ATP treatment (1 mM). Fluorescence was recorded for 25 (YO-PRO 1) or 5 min (MPR). The data were normalized by setting as 100% for the fluorescence measured from hP2X7 HEK-293 cells incubated with vehicle (0.1% DMSO) and treated with 1 mM ATP and 0% for the fluorescence recorded by the cells not treated with ATP. The data shown correspond to three independent biological replicates (3 technical replicates per experiment; error bars represent the SEM from the mean values of each biological replicate (n = 3)). The statistical analysis was performed with one-way Anova using Dunnett’s function (P**** < 0.0001; P*** < 0.0003; P** < 0.002; P* < 0.02).

hP2X7 [2] = target: T1, hP2X7; test: Membrane Potential Red (MPR) dye assay, HEK-293 cells stably transfected with hP2X7; conditions: 10 μM, 1 mM ATP, hP2X7 HEK-293
Description: as §1
(§4) Cells were plated as described for the YO-PRO 1 dye uptake assay. MPR dye (Molecular Devices) was prepared following the manufacturer’s protocol and diluted 1:10 in ECS-LD buffer. After washing with DPBS, cells were incubated with the dye for 30 min at 37 °C. Fluorescence changes (excitation: 525 nm; emission: 560 nm) were recorded using a Clariostar plate reader during ATP-induced membrane depolarization. Baseline fluorescence was recorded for 5 cycles, and ATP was added via an automated injector (10 μL). Membrane depolarization was quantified as the ratio of the maximal fluorescence change over baseline intensity (Δ(F max–F0)/F0)).
as §3

hP2X7 [3] = target: T1, hP2X7; test: Membrane Potential Red (MPR) dye assay, 1321 N1 cells stably transfected with hP2X7; conditions: P2X7; compound 10 μM, 700 μM ATP
Description: as §1, §4
2 Initial screening assays to identify hit compounds. (A) The compounds were screened at 30 μM in the YO-PRO 1 dye uptake using 1321 N1 cells stably transfected with hP2X7. Compound activity was evaluated along a time of 20 min (75 s per cycle) after ATP addition (700 μM). The fluorescence intensity (FI) values of the first 10 cycles were considered for assessing their ability to inhibit hP2X7. Compound responses were normalized to the fluorescent signal recorded on 0.3% DMSO cells treated with 700 μM ATP of each plate. […] (B) Compounds screened at 10 μM using MPR using 1321 N1 cells stably transfected with hP2X7. The compound activity was evaluated for 5 min after ATP addition (15 s per cycle). The fluorescence intensity recorded in the first cycles (before reaching a plateau response) was considered for assessing the small molecule’s ability to inhibit hP2X7. Compound responses were normalized to the fluorescence signal recorded on 0.1% DMSO cells treated with 700 μM ATP of each plate. […] One-way ANOVA and Dunnet test were used for statistical analysis (****P < 0.0001), (*P < 0.02). […]

hP2X7 [4] = target: T1, hP2X7; test: as above; conditions: compound 10 μM, 700 μM ATP
hP2X7 [5] = target: T1, hP2X7; test: YO-PRO 1 dye uptake assay, 1321 N1 cells stably transfected with hP2X7; conditions: compound 30 μM, 700 μM ATP; for reduction of P2X7 activation: 0.3% DMSO
Description: as §1, §2
The P2X7 receptor, besides being a ligand-gated ion channel, forms large membrane pores following prolonged exposure to high concentrations of ATP, leading to apoptosis (Mackenzie et al. 2005). The YO-PRO 1 dye uptake assay, which measures dye influx through these pores, was selected as the primary screen. The fluorescence of YO-PRO 1 increases when it binds to DNA, enabling real-time monitoring of P2X7 activation (calculated as the rate of increase in fluorescence as YO-PRO 1 binds nuclear DNA).
The screening compounds were tested at 30 μM (0.3% DMSO) in 5 μM YO-PRO 1 dye diluted in freshly prepared ECS-LD buffer. Cells pretreated with the screening compounds were challenged with 700 μM ATP, and the fluorescence intensities were recorded. The negative control consisted of cells treated with 0.3% DMSO, while the positive control was 0.1 μM JNJ47965567, a selective P2X7 antagonist. ,
2 Initial screening assays to identify hit compounds. (A) The compounds were screened at 30 μM in the YO-PRO 1 dye uptake using 1321 N1 cells stably transfected with hP2X7. Compound activity was evaluated along a time of 20 min (75 s per cycle) after ATP addition (700 μM). The fluorescence intensity (FI) values of the first 10 cycles were considered for assessing their ability to inhibit hP2X7. Compound responses were normalized to the fluorescent signal recorded on 0.3% DMSO cells treated with 700 μM ATP of each plate. […] (B) Compounds screened at 10 μM using MPR using 1321 N1 cells stably transfected with hP2X7. The compound activity was evaluated for 5 min after ATP addition (15 s per cycle). The fluorescence intensity recorded in the first cycles (before reaching a plateau response) was considered for assessing the small molecule’s ability to inhibit hP2X7. Compound responses were normalized to the fluorescence signal recorded on 0.1% DMSO cells treated with 700 μM ATP of each plate. […] One-way ANOVA and Dunnet test were used for statistical analysis (****P < 0.0001), (*P < 0.02).

In the case of `CC(C)NC(=O)NC(Cc1ccc2c(c1)OCO2)Cc1ccc2c(c1)OCO2` [Compound 2a], the “hP2X7 inhibition in YO-PRO 1 dye uptake, SAR” value (“hP2X7 inhibition” for short) (hP2X7 [1]) is reported as “reduced antagonist effects”.
For `COc1ccc(CC(Cc2ccc3c(c2)OCO3)NC(=O)Nc2ccc(C)c(F)c2)cc1` (stereo not shown) [Compound 2b], the “hP2X7 inhibition” value (hP2X7 [1]) was “diminished hP2X7 inhibition”.
In the case of `O=C(Nc1ccc(F)cc1F)NC(Cc1ccc2c(c1)OCO2)Cc1ccc2c(c1)OCO2` [Compound 2c], the “reduction of hP2X7 activity” value (hP2X7 [1]) is reported as 80%.
With `CNC(=O)NC(Cc1ccc(F)cc1)Cc1ccc2c(c1)OCO2` (stereo not shown) [Compound 2d] the “hP2X7 inhibition” value (hP2X7 [1]) was “reduced antagonist effects”.
For `CCOC(=O)c1ccccc1NC(=O)NC(Cc1ccc(OC)cc1)Cc1ccc2c(c1)OCO2` (stereo not shown) [Compound 2e], the “hP2X7 inhibition” value (hP2X7 [1]) was “diminished hP2X7 inhibition”.
`O=C(NCCc1ccc2c(c1)OCO2)NCCN1CCN(c2ccccc2)CC1` [Compound 2f] was tested, and the “hP2X7 inhibition” value (hP2X7 [1]) was “reduced activity compared to 2”.
In the case of `CCOc1ccc(NC(=O)NC(Cc2ccc(F)cc2)Cc2ccc3c(c2)OCO3)cc1` (stereo not shown) [Compound 2h], the “reduction of hP2X7 activity” value (hP2X7 [1]) is reported as 80%.
With `COc1ccc(CCNC(=O)Nc2ccc3c(c2)OCO3)cc1OC` [Compound 2j] the “hP2X7 inhibition” value (hP2X7 [1]) was “reduced activity compared to 2”.
With `COc1ccc(CC(Cc2ccc3c(c2)OCO3)NC(=O)c2ccc(NC(C)=O)cc2)cc1` (stereo not shown) [Compound 2k] the “hP2X7 inhibition” value (hP2X7 [1]) was “still reduced receptor activation”, the “reduction of hP2X7 activity” value (hP2X7 [1]) was 80% and the “activity in MPR assay” value (hP2X7 [2]) was “diminished activity relative to the other structural analogues”.
For `O=C(NCc1ccc(Oc2ccc(F)cc2)cc1)c1ccccc1CN1C(=O)CNC1=O` [Compound 4], the inhibition at 10 µM (hP2X7 [3]) was roughly 90%, the “activity in MPR screen, hP2X7-induced membrane depolarization” value (“activity in MPR screen” below) (hP2X7 [4]) was “statistically inhibited” and the “activity in YO-PRO 1 dye uptake screen” value (hP2X7 [5]) was “no significant activity”.
With `COc1cccc(NC(=O)CSc2ccccc2C(=O)NCc2cn3ccccc3n2)c1` [Compound 6] the IC50 (hP2X7 [1]) was 20.9 µM, the “activity in MPR screen” value (hP2X7 [4]) was “did not also block” and the “activity in YO-PRO 1 dye uptake screen” value (hP2X7 [5]) was “antagonist activity”. The “reduction of P2X7 activation” value (hP2X7 [5]) was “at least 50%”.
For `Cc1nn(-c2ccccc2)c(C)c1NC(=O)NCc1ccccc1Cn1cccn1` [Compound 7], the IC50 (hP2X7 [1]) was 4.23 µM, the “activity in MPR screen” value (hP2X7 [4]) was “did not also block” and the “activity in YO-PRO 1 dye uptake screen” value (hP2X7 [5]) was “antagonist activity”. For the same compound, the “reduction of P2X7 activation” value (hP2X7 [5]) was “at least 50%”.
For `O=C(NCc1ccccc1)NC1(C(=O)NCc2ccccc2Cn2ccnc2)CCCC1` [Compound 8], the IC50 (hP2X7 [1]) was 4.07 µM, the “activity in MPR screen” value (hP2X7 [4]) was “did not also block” and the “activity in YO-PRO 1 dye uptake screen” value (hP2X7 [5]) was “antagonist activity”. The “reduction of P2X7 activation” value (hP2X7 [5]) was “at least 50%”.
With `CN(C)C(=O)Cn1cc(NC(=O)c2cnc(-c3ccc4c(c3)OCO4)s2)cn1` [Compound 9a] the “hP2X7 inhibition” value (hP2X7 [1]) was “reduced activity”.
For `O=C(COC(=O)c1cccnc1SCC(=O)Nc1ccc2c(c1)OCO2)NCc1ccco1` [Compound 9c], the “hP2X7 inhibition” value (hP2X7 [1]) was “compromised activity”.
In the case of `O=C(CSc1ncccc1C(=O)Nc1ccc(-n2cnnn2)cc1)Nc1ccc2c(c1)OCO2` [Compound 9d], the “hP2X7 inhibition” value (hP2X7 [1]) is reported as “activity comparable to that of 9”.
With `O=C(CSc1ncccc1C(=O)N1CCN(c2ccccc2F)CC1)Nc1ccc2c(c1)OCO2` [Compound 9e] the “hP2X7 inhibition” value (hP2X7 [1]) was “activity comparable to that of 9; also recorded: enhanced target inhibition”.
With `CN(C)S(=O)(=O)c1cccc(COC(=O)c2cccnc2SCC(=O)Nc2ccc3c(c2)OCO3)c1` [Compound 9h] the “hP2X7 inhibition” value (hP2X7 [1]) was “activity comparable to that of 9; also recorded: enhanced target inhibition”.
